From ChEMBL document CHEMBL1201862, “PubChem BioAssay data set” (2004) come the findings set out here.

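All cell lines were grown in 96-well plates and treated with compound for 48 hours. GI50 = concentration required for 50% inhibition of growth.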 The source made the active and inactive calls. No stated cut-off is given here; in the data, active = GI50 up to about 1.1 µM and inactive = higher.

Some test systems named below: TK-10; PC-3; SR; UO-31; NCI/ADR-RES; UACC-257; MDA-N; MDA-MB-435; DU-145; Malme-3M; M14; M19-MEL; KM-20L2; DMS-273; XF498; DMS-114; T47D; Hs-578T; NCI-H522; DLD-1.
Assay in all cases: growth of human tumour cells (NCI), 48 h

Take `Cc1ccc(C2=C(C#N)C(N)OC3=C2COc2ccccc23)cc1` (stereo unspecified): the GI50 in the assay with TK-10 is 17.2 µM (inactive); in the assay on PC-3, 18.9 µM (inactive); in the assay on SR it was 32.6 µM (inactive); in the assay on UO-31, 14.3 µM (inactive); in the assay on NCI/ADR-RES, 30.3 µM (inactive); in the assay with UACC-257, > 100 µM (inactive). In addition, the GI50 in the assay on MDA-N is 44.2 µM (inactive); in the assay with MDA-MB-435, 51.9 µM (inactive); in the assay with DU-145, 17.6 µM (inactive); in the assay on Malme-3M, 22.8 µM (inactive); in the assay on M14, > 100 µM (inactive).

Regarding `O=C(N/C=C1\C(=O)Oc2ccccc2C1=O)NC1CCCCC1`, the GI50 in the assay on TK-10 is > 100 µM (inactive); in the assay on M19-MEL, 73.5 µM (inactive); with KM-20L2, > 100 µM (inactive); with SR it was > 100 µM (inactive); in the assay on UO-31 it was 21.3 µM (inactive); with DMS-273, > 100 µM (inactive). Moreover, the GI50 in the assay on UACC-257 was 69.7 µM (inactive); with XF498, 21.4 µM (inactive); with DMS-114 it was 45.3 µM (inactive); with M14, 50.2 µM (inactive).

On to `CCOC(=O)c1c(NC(=O)Nc2ccccc2)c(C(N)=O)c2n1CCCCC2`, for which the GI50 in the assay with TK-10, in the assay with PC-3, in the assay with T47D, in the assay on Hs-578T, with SR and in the assay on UO-31 was > 100 µM (inactive) in each case. For the same compound, the GI50 in the assay on NCI/ADR-RES, with UACC-257, with MDA-MB-435, with DU-145 and in the assay with M14 was > 100 µM (inactive) each time.

`CCOC(=O)c1ccc(Nc2nc3cc(C(F)(F)F)ccc3nc2C(=O)OCC)cc1`: the GI50 in the assay with TK-10 is 26.4 µM (inactive); in the assay on PC-3, 47.8 µM (inactive); in the assay with T47D, 69.3 µM (inactive); with Hs-578T, > 100 µM (inactive); in the assay with SR, > 100 µM (inactive); in the assay on UO-31, > 100 µM (inactive). Besides, the GI50 in the assay on NCI/ADR-RES, with NCI-H522, with UACC-257, with MDA-N, in the assay with MDA-MB-435 and with DU-145 was > 100 µM (inactive) throughout. Further, the GI50 in the assay on M14 was 34.2 µM (inactive).

On to `Nc1ccn(C2OC(CO)C(O)C2(F)F)c(=O)n1` (stereo unspecified), for which the GI50 in the assay with PC-3 was 0.885 µM (active); with T47D, 0.387 µM (active); in the assay on SR it was 0.158 µM (active); in the assay on UO-31 it was 0.0658 µM (active); with NCI/ADR-RES it was 0.0755 µM (active); in the assay with NCI-H522, 0.318 µM (active). Further, the GI50 in the assay on UACC-257 is 0.312 µM (active); with MDA-N, 0.237 µM (active); with MDA-MB-435, 0.384 µM (active); with DU-145, 0.179 µM (active); with Malme-3M, 0.63 µM (active); in the assay on M14, 0.0313 µM (active).

For the compound `OC(c1cccnc1Cl)c1nc2ccccc2c2ccnc(Cl)c12` (stereo unspecified), the GI50 with TK-10 is 24.3 µM (inactive); in the assay with PC-3, 2.11 µM (inactive); with T47D it was 21.4 µM (inactive); in the assay on Hs-578T, 2.72 µM (inactive); with SR, 0.396 µM (active); with UO-31 it was 8.87 µM (inactive). Also, the GI50 was 2.88 µM (inactive) in the assay on NCI/ADR-RES; 1.05 µM (active) in the assay on NCI-H522; > 100 µM (inactive) in the assay with UACC-257; 0.69 µM (active) with MDA-N; 0.628 µM (active) with MDA-MB-435; 23 µM (inactive) in the assay with DU-145. Moreover, the values for the GI50 in the assay with Malme-3M and with M14 were 6.92 µM (inactive) and 2.08 µM (inactive), respectively.

With `COc1cc(C2S/C(=C/c3ccccc3)C(=O)N2c2cccc(NC(C)=O)c2)cc(OC)c1OC` (stereo unspecified), the GI50 in the assay with TK-10 was 80.5 µM (inactive); with PC-3 it was 14.1 µM (inactive); with T47D it was 15.4 µM (inactive); with Hs-578T, 15.3 µM (inactive); with SR, 37.9 µM (inactive); in the assay on UO-31, 36.6 µM (inactive). Moreover, the GI50 in the assay with NCI/ADR-RES is 27.9 µM (inactive); in the assay on NCI-H522, 13.5 µM (inactive); with UACC-257, 66.2 µM (inactive); with MDA-N, 26.7 µM (inactive); in the assay on MDA-MB-435, 18.3 µM (inactive); with Malme-3M, 23.4 µM (inactive). Besides, in the assay on M14, the GI50 was 34.4 µM (inactive).

Consider `Cc1cc(O)c(C(C)C)cc1SC#N`, for which the GI50 was 16.9 µM (inactive) in the assay on TK-10; 17.1 µM (inactive) with PC-3; 17.8 µM (inactive) in the assay with T47D; 20.5 µM (inactive) in the assay with Hs-578T; 19.2 µM (inactive) with NCI/ADR-RES; 5.46 µM (inactive) with NCI-H522. Besides, the GI50 in the assay on UACC-257 is 16.6 µM (inactive); in the assay on MDA-MB-435, 13.7 µM (inactive); with DU-145, 15.5 µM (inactive); with Malme-3M it was 17.4 µM (inactive).

In the case of `c1ccc2c(c1)N=C(NC1CCCCC1)CCN2`, the GI50 with TK-10, in the assay with PC-3, in the assay on Hs-578T, with UO-31, in the assay with NCI/ADR-RES and in the assay on NCI-H522 was > 100 µM (inactive) each time. In addition, the GI50 in the assay with UACC-257, in the assay on MDA-N, with MDA-MB-435, in the assay on DU-145, in the assay with Malme-3M and in the assay on M14 was > 100 µM (inactive) in each case.

In the case of `CCOP(=O)(COCCn1nc(Br)c(=O)[nH]c1=O)OCC`, the GI50 in the assay with PC-3, in the assay with T47D, in the assay on Hs-578T, in the assay with SR, in the assay with UO-31 and with NCI/ADR-RES was > 100 µM (inactive) in each case. For the same compound, the GI50 in the assay with NCI-H522, in the assay on UACC-257, in the assay with MDA-N, with MDA-MB-435, in the assay on DU-145 and in the assay with Malme-3M was > 100 µM (inactive) in each case. Also, in the assay on M14, the GI50 is > 100 µM (inactive).

As for `CC(C)=CC1CC(=O)C1(C)Sc1ccccc1` (stereo unspecified), the GI50 in the assay on TK-10 was > 100 µM (inactive); in the assay on M19-MEL, 27.5 µM (inactive); in the assay on KM-20L2 it was 36.3 µM (inactive); with SR, 20 µM (inactive); in the assay on UO-31, 50.2 µM (inactive); in the assay with NCI-H522, 24 µM (inactive). Moreover, the GI50 in the assay on UACC-257 was 45.5 µM (inactive); in the assay with DLD-1, 52.8 µM (inactive); in the assay with XF498 it was 37.7 µM (inactive); with DMS-114, 16.6 µM (inactive); with Malme-3M it was > 100 µM (inactive); in the assay with M14, 96.4 µM (inactive).

On to `CC(=O)OC[C@H]1[C@@H]2C(CC[C@]13CO3)OC(=O)CC(C)[C@]2(C)CCc1ccoc1` (stereo partly specified), for which the GI50 with TK-10, with PC-3, in the assay with T47D, in the assay with Hs-578T, in the assay on SR and in the assay with UO-31 was > 100 µM (inactive) in each case. Also, the GI50 in the assay on NCI/ADR-RES, with NCI-H522, with UACC-257, in the assay with MDA-N, in the assay on MDA-MB-435 and in the assay with DU-145 was > 100 µM (inactive) in each case. The GI50 in the assay on Malme-3M and in the assay on M14 was > 100 µM (inactive) in each case.

Turning to `CN1C[C@H]2[C@@H](C1=O)[C@H](c1ccc([N+](=O)[O-])cc1)ON2C`, the GI50 in the assay with TK-10, in the assay with PC-3, with T47D, in the assay with Hs-578T, with SR and with UO-31 was > 100 µM (inactive) each time. The GI50 with NCI/ADR-RES, with NCI-H522, in the assay on UACC-257, in the assay on MDA-N, in the assay on MDA-MB-435 and in the assay with DU-145 was > 100 µM (inactive) in each case. Moreover, the GI50 with M14 is > 100 µM (inactive).

For `O=S(=O)(c1ccccc1)C1CC(c2nc3ccccc3[nH]2)=NO1` (stereo unspecified), the GI50 in the assay on TK-10 was 74.8 µM (inactive); with PC-3, > 100 µM (inactive); with T47D, > 100 µM (inactive); in the assay on Hs-578T, > 100 µM (inactive); with SR it was 29.3 µM (inactive); in the assay on UO-31, > 100 µM (inactive). The GI50 was > 100 µM (inactive) with NCI/ADR-RES; 28.6 µM (inactive) in the assay with NCI-H522; > 100 µM (inactive) with UACC-257; > 100 µM (inactive) in the assay with MDA-N; 72.3 µM (inactive) with MDA-MB-435; > 100 µM (inactive) with DU-145. For the same compound, the GI50 in the assay with Malme-3M is 8.26 µM (inactive).

In the case of `C=CC1OC(CCCOC(=O)C(C)(C)C)O[C@@H]1CC` (stereo partly specified), the GI50 with TK-10, in the assay with PC-3, in the assay with T47D, in the assay with Hs-578T, in the assay with SR and in the assay on UO-31 was > 100 µM (inactive) each time. Moreover, the GI50 in the assay with NCI/ADR-RES, with NCI-H522, with UACC-257, in the assay with MDA-N, with MDA-MB-435 and in the assay on DU-145 was > 100 µM (inactive) in each case. Also, in the assay with M14, the GI50 was > 100 µM (inactive).

With `CCN1c2ccccc2NC(=S)c2c(-c3ccccc3)n[nH]c21`, the GI50 was 48.4 µM (inactive) in the assay with TK-10; 25.6 µM (inactive) in the assay with PC-3; 17.9 µM (inactive) in the assay with T47D; 75.5 µM (inactive) in the assay on Hs-578T; 24.7 µM (inactive) in the assay on SR; 23.1 µM (inactive) with NCI/ADR-RES. Besides, the GI50 in the assay on NCI-H522 was 21 µM (inactive); in the assay on UACC-257, 48.2 µM (inactive); in the assay with MDA-N, 16.4 µM (inactive); in the assay with MDA-MB-435, 18.4 µM (inactive); with DU-145 it was 39.9 µM (inactive); in the assay on M14, 31.6 µM (inactive).
